Entries after “also recorded” stand apart in the source; their conditions may differ.
Key:
IC16 antibody = test: IC16 capture ELISA; assay type: binding
PrP^C [1] = tested on: PrP^C
[2] = set-up: method as in 3 sources, one per row (each row's own in cited_ref): ref 13 = [13]; PMID 9600986; doi:10.1073/pnas.95.11.6448; 13. Lambert MP , Diffusible, nonfibrillar ligands derived from Abeta1-42 are potent central nervous system neurotoxins . Proc Natl Acad Sci U S A 95 , 6448 – 6453 ( 1998 ). 9600986 10.1073/pnas.95.11. ||| ref 15 = [15]; PMID 26018073; doi:10.1074/jbc.M115.643577; 15. Kostylev MA , Prion-Protein-interacting Amyloid-beta Oligomers of High Molecular Weight Are Tightly Correlated with Memory Impairment in Multiple Alzheimer Mouse Models . J Biol Chem 290 , 17415 – ||| ref 14 = [14]; PMID 19216516; doi:10.1021/bi802046n; 14. Yu L , Structural characterization of a soluble amyloid beta-peptide oligomer . Biochemistry 48 , 1870 – 1877 ( 2009 ). 19216516 10.1021/bi802046n; conditions: cited from earlier work
PrP^C [3] = conditions: cited from earlier work
Aß42 [4] = test: Thioflavin-T polymerization of Aß42; assay type: biochemical
[5] = Size exclusion chromatography with PLISA readout; assay type: physicochemical; conditions: Superdex 200, purified Aß spiked in control brain TBS lysate, PLISA of fractions
[6] = tested on: human iPSC-derived cortical excitatory neurons; test: Synapse loss in human iPSC-derived cortical neurons; assay type: cell-based; conditions: 7 days
Protocol: Human neurons derived from induced pluripotent stem cells (iPSCs) with Neurogenin2 (Ngn2) stably integrated under doxycycline control were prepared and cultured as described. Poly-D-Lysine-coated 384 well plates (Corning # 354663) were seeded with 2,000 cells in 50 μl of Classic Neuronal Media (CNR: 50% DMEM/F12 (Gibco), 50% Neurobasal-A (Gibco), 0.5X Glutamax (Gibco), 1X MEM Non-Essential Amino Acids Solution (Gibco), 0.5X B27 supplement (Gibco), 0.5X N-2 supplement (Gibco), 10 ng/ml BDNF (PeproTech), 10 ng/ml NT-3 (PeproTech), 1 μg/ml mouse Laminin (Gibco)) containing 2 μg/ml doxycycline hydrochloride (Sigma). On DIV 7 and 14, 50 μl of CNR without doxycycline hydrochloride was added to each well. Every week after that, 30 μl of media was removed from each well and replaced with 30 μL of fresh media. Cells were grown for at least 60 days before treatment with receptor-bound Aßo. […]
Image analysis was performed using ImageXpress built in analysis software, MetaXpress. […] To measure synapsin1/2 density on MAP2, the number of synaptic puncta overlapping with the MAP2 mask were counted and then divided by the area of the MAP2 mask. To measure Synapsin1/2 colocalized with homer1b/c density on MAP2, first, only the round objects of Synapsin1/2 and Homer1b/c colocalized with each other that also overlap with MAP2 were counted and divided by the MAP2 area. […]

[7] = Electron microscopy length of Aß assemblies; assay type: physicochemical; conditions: for length (mean ± sd): electron microscopy; for filament length, overall: human AD brain
[8] = Monomer count from cryo-EM rung spacing and length; assay type: physicochemical; conditions: 4.75 Å rung spacing, 65 nm length, two monomers per rung
Text: Data sets were processed using standard amyloid helical reconstruction procedures implemented in RELION 4.0 [49]. Dose-fractionated micrograph movies were corrected for beam-induced motion using the RELION’s own implementation of motion correction. Contrast transfer function (CTF) parameters were estimated from the motion-corrected micrographs using CTFFIND-4.1 [51]. The start-end coordinates of the Aß filaments were manually marked in the aligned micrographs using RELION 4.0. Segments were extracted with an inter-box distance of 12-Å, a helical rise of 4.75 Å and using a box size of 200 pixels with 1.068 Å per pixel. Extracted segments were subjected to several rounds of reference free two-dimensional (2D) classification to remove suboptimal segments and to select for segments showing detailed features along the filament axis. A three-dimensional (3D) cylinder was generated using the “relion_helix_toolbox” utility and used as reference for an initial 3D classification of the helical segments retained after the 2D classification steps. The initial 3D classification performed on the set of optimal 2D-segments assumed a helical rise of 4.75 Å and a value of the helical twist as estimated from the crossover distances in the 2D class averages. […]

Aß = assay type: biochemical, mouse
Aß42 [9] = test: Filament length at end of polymerization reactions (negative stain EM)
anti-Aß antibodies = test: Immunoblot epitope profiling, receptor-bound vs sarkosyl-insoluble Aß; assay type: binding; conditions: n=4 AD brains; for amino-terminal epitope immunoreactivity, receptor-bound vs sarkosyl-insoluble: normalized to mid-region antibody 4G8, HFIP-monomerized
Text: The tubes were then opened and kept in the fume hood overnight at room temperature to evaporate the HFIP. The remaining protein films were resuspended in 1X Laemmli buffer supplemented with 8 M urea. The resulting samples were separated on 4-20% gradient Criterion Tris-Glycine gels (BioRad), transferred onto the nitrocellulose membranes, blocked with Rockland fluorescent Western Blot blocking buffer and immunoprobed with the appropriate detection antibodies overnight at 4C, washed in PBST, incubated the IRdye conjugated secondary antibodies (LiCor) for 1 h at RT and imaged on the near-infrared scanner (LiCor Odyssey). Both primary and secondary antibody were diluted in Rockland fluorescent Western Blot blocking buffer. The immunoblot data quantitation was performed using the LiCor ImageStudio software.

PrP^C [10] = tested on: PrP^C; remark: listed apart in the source
Aß species = conditions: reported; cited from earlier work
Text: For this comparison, the PSCMA-released Aß pool prior to antibody affinity retention was compared to PSCMA-resistant material containing plaque-associated Aß. The PSCMA-resistant material was further extracted with sarkosyl, and the sarkosyl-insoluble pellet resuspended for immunoblot. The Aß ...

receptor-bound Aß = test: Lecanemab capture ELISA; assay type: binding, human; conditions: Lecanemab coated plate, D54D2 detection; Extended Data Fig. 1: 5 μg/mL coating, vs isotype control and no antibody wells

## Aß42 globulomer: Globulomers of Aß42 are prepared in SDS and then isolated as stable 12-mers
IC16 antibody
  affinity/activity in IC16 capture ELISA: much higher activity
PrP^C [1]
  PrP^C binding, summary: binds
  apparent avidity for PrP^C in PLISA: similar
[2]; prepared in SDS
  assembly state: stable 12-mers

## Aß42 monomers: HFIP-monomerized synthetic Aß42
PrP^C [1]
  apparent avidity for PrP^C in PLISA: nil or at least two orders of magnitude lower

## amyloid-ß [Aß]
PrP^C [3]
  off-rate from PrP^C: slow off-rate with a half-life of days

## amyloid-ß derived diffusible ligands [synthetic Aß42 ADDL]
PrP^C [1]
  PrP^C binding, summary: binds
[2]; no reference at place
  apparent MR: 500,000
[2]; synthetic Aß42 in F12 media, metastable spherical assemblies
  assembly size: 500 kDa

## cellular prion protein [PrP^C]
Aß42 [4]
  effect on Aß42 amyloid filament formation: inhibits Aß42 amyloid filament formation
Aß42 [4]; pH 7.4
  effect on rate of Aß42 polymerization seeded by fibrils: reduced the rate of Aß42 polymerization or Aß42 polymerization seeded by fibrils
  effect on rate of Aß42 polymerization, unseeded: reduced the rate of Aß42 polymerization

## receptor-bound Aß: PSCMA-released, IC16-immunopurified Aß filament pool from Alzheimer's disease brain
[5]
  size by migration of globular proteins: ~650 kDa
PrP^C [1]
  PrP^C binding, summary: binds
  apparent avidity for PrP^C in PLISA: binds PrP^C with the affinity similar to that for synthetic Aß oligomeric preps (F12)
[6]; 160 pM Brain A, 80 pM Brain B, 16 pM Brain C, vs control brain fraction
  dendrite density (MAP2 area): does not change
[6]; 16-160 pM assembly (4-40 nM monomer equivalent), three AD brains vs control brain fraction
  synaptic density (Synapsin1/Homer1b/c overlap at MAP2 dendrites): significantly reduced; also recorded: potently suppresses synapse density
Aß42 [4]; 20 nM monomer equivalent seeds, 5 μM Aß42, vs no seeds
  maximal ThT fluorescence: reduced the maximal fluorescence achieved
Aß42 [4]; 20 nM monomer equivalent, 5 μM Aß42, n=19 experiments, Brains A-D, vs no seeds
  effect on Aß42 polymerization rate as seed: significantly slowed polymerization
[7]; second of three AD brains
  length (mean ± sd): 70±24.4 nm
[7]; third of three AD brains
  length (mean ± sd): 71±29.2 nm
[7]
  filament length, overall: about 65 nm
[7]; listed as Receptor-bound amyloid-ß
  filament length, overall: 65 nm
[8]
  number of monomers per assembly: about 300
Aß
  amount detected in APP/PS1, Prnp−/− mice (vs WT Prnp background): Significantly lower amount
  reduction of Aß released by PSCMA when PrP^C was absent: about 50%
Aß42 [9]; 5 μM Aß42, without seeds or with 20 nM seeds, negative stain EM
  length of filaments at completion of polymerization: 200-500 nm
Aß42 [9]; 4 different brains, 20 nM seeds, 5 μM Aß42
  filament length compared with other seeds / no seeds: significantly shorter
anti-Aß antibodies; carboxyl terminus, normalized to mid-region antibody
  Aß40 reactivity, receptor-bound vs fibrillary pool: greater for Aß40 in the receptor-bound pool
anti-Aß antibodies
  amino-terminal epitope immunoreactivity, receptor-bound vs sarkosyl-insoluble: five-fold enriched
anti-Aß antibodies; listed as Receptor-bound Aß
  amino-terminal epitope immunoreactivity, receptor-bound vs sarkosyl-insoluble: significant increase in the immunoreactivity with antibodies directed against N-terminus of Aß
anti-Aß antibodies; normalized to mid-region antibody
  pyroglutamylated Aß reactivity, receptor-bound vs insoluble fibrillary Aß: present equally in both receptor-bound Aß and insoluble fibrillary Aß
PrP^C [10]
  distance of PrP^C-associated gold particles from filament tips: ≤ 5 nm

B1: Lecanemab: FDA approved anti-Aß antibody (antibody, chains of the INN, looked up, V domains shown)
VH: EVQLVESGGGLVQPGGSLRLSCSASGFTFSSFGMHWVRQAPGKGLEWVAYISSGSSTIYYGDTVKGRFTISRDNAKNSLFLQMSSLRAEDTAVYYCAREGGYYYGRSYYTMDYWGQGTTVTVSS
VL: DVVMTQSPLSLPVTPGAPASISCRSSQSIVHSNGNTYLEWYLQKPGQSPKLLIYKVSNRFSGVPDRFSGSGSGTDFTLRISRVEAEDVGIYYCFQGSHVPPTFGPGTKLEIK
Aß species
  binding preference among Aß species: preferential affinity for oligomeric and protofibrillary Aß species, with less avidity for Aß filaments and minimal interaction with monomeric Aß
receptor-bound Aß
  affinity / reactivity for receptor-bound Aß: high affinity for the receptor-bound Aß species; also recorded: receptor-bound Aß is recognized by this antibody; also recorded: binds to ELISA plates coated with 5 μg/mL Lecanamab but not to wells coated with isotype control or to no antibody wells

Reference: paper doi:10.1101/2025.10.10.681740, “Distinct Filament Conformation for Receptor-Bound Amyloid-ß from Alzheimer’s Disease Brain” (bioRxiv, 2025)
